We go through five compounds from PubChem BioAssay (NCI).

What all share (assay): growth of human tumour cells (NCI), 48 h
The test system of experiment [1] is CCRF-CEM leukemia.
Experiment [2] relates to DLD-1 colon.
The subject of experiment [3] is DMS 273 small cell lung.
Experiment [4] concerns HCC-2998 colon.
The test system of experiment [5] is HOP-62 NSCLC.
The subject of experiment [6] is HT29 colon.
For experiment [7], the system named is K-562 leukemia.
The test system of experiment [8] is KM12 colon.
Experiment [9] concerns LOX IMVI melanoma.
Experiment [10] relates to OVCAR-4 ovarian.
Experiment [11] relates to SF-268 CNS.
Experiment [12] has as its system SF-295 CNS.
The subject of experiment [13] is SK-MEL-2 melanoma.
Experiment [14] deals with SK-MEL-28 melanoma.
For experiment [15], the system named is SNB-75 CNS.
Experiment [16] relates to U251 CNS.
Experiment [17] concerns UACC-257 melanoma.
Experiment [18] deals with UO-31 renal.
Experiment [19] relates to BT-549 breast.
Experiment [20] concerns MDA-MB-231 breast.

Molecules are shown by their SMILES.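 Grown in 96-well plates, cells were treated for 48 hours with each compound at five concentrations. Insufficient inhibition: endpoint recorded as highest concentration tested. TGI: total growth inhibition.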 Some results are limits rather than exact numbers.

Consider `O=C(Nc1ccc(Cl)cc1)C(=O)C(C(=O)c1ccccc1-c1ccccc1)C1OC(=O)c2ccccc21` (configuration not stated), for which the TGI is 58 µM in experiment [1]; greater than 100 µM in experiment [2]; greater than 100 µM in experiment [3]; 33.8 µM in [4]; greater than 100 µM in [5]; 58.6 µM in experiment [6]. In addition, the TGI is greater than 100 µM in experiment [7]; 39.4 µM in experiment [8]; 36 µM in [9]; greater than 100 µM in experiment [10]; 64.1 µM in experiment [11]; greater than 100 µM in experiment [12]. The TGI is 55.5 µM in experiment [13]; 36.6 µM in experiment [14]; 93.3 µM in [15]; 27.8 µM in experiment [16]; 61.3 µM in experiment [17]; 36.6 µM in experiment [18].

As to `COC(=O)C(Cc1cn(C(C)=O)c2ccccc12)P(=O)(OC)OC` (configuration not stated), the TGI in [19], in [1], in experiment [4], in experiment [6], in experiment [7] and in experiment [8] was greater than 100 µM in each case. The TGI in experiment [20], in experiment [10], in experiment [11], in [12], in experiment [14] and in experiment [15] was greater than 100 µM throughout. Moreover, the TGI in [16], in [17] and in [18] was greater than 100 µM throughout.

Regarding `Nc1nc(N)c2cc(Sc3ccc4nc(N)nc(N)c4c3)ccc2n1`, the TGI is greater than 100 µM in experiment [19]; 0.0104 µM in [1]; greater than 100 µM in experiment [4]; greater than 100 µM in experiment [5]; greater than 100 µM in experiment [6]; greater than 100 µM in [7]. Further, the TGI in [8], in [9], in experiment [20], in [10], in [11] and in experiment [13] was greater than 100 µM each time. Further, the TGI in experiment [14], in experiment [15], in experiment [16], in experiment [17] and in [18] was greater than 100 µM in each case.

For `O=C(Nc1cccc2ccccc12)Nn1cnnc1`, the TGI in experiment [19], in experiment [1], in [4], in [5], in experiment [6] and in experiment [7] was greater than 100 µM each time. The TGI in [8], in [9], in [10], in experiment [11], in experiment [12] and in [13] was greater than 100 µM in each case. Also, the TGI in experiment [14], in experiment [15], in [16], in [17] and in [18] was greater than 100 µM throughout.

For the compound `C/C1=C/C(C)CC(C)OC(=O)C(C)NC(=O)C(Cc2ccc(O)c(I)c2)N(C)C(=O)CNC(=O)C(C)C1` (configuration not stated), the TGI was 0.322 µM in experiment [19]; less than 0.01 µM in experiment [1]; 13.2 µM in experiment [4]; less than 0.01 µM in [5]; greater than 100 µM in [6]; greater than 100 µM in [8]. The TGI is less than 0.01 µM in experiment [9]; 1.99 µM in experiment [20]; 1.35 µM in experiment [11]; 1.73 µM in [12]; 10.2 µM in [13]; less than 0.0141 µM in experiment [15]. The results for the TGI in experiment [16], in experiment [17] and in experiment [18] were 0.0707 µM, 5.97 µM and 0.035 µM, respectively.
